Results taken from patent US20240246950A1, “Anilino-Pyrazole Derivatives, Compositions and Methods Thereof” (Ensem Therapeutics, priority 2022, published 2024).
Where two headings read alike, the source gives them in different places.

How the values were obtained:
OVCAR3 = assay: Cell proliferation (CyQUANT) OVCAR3; type: cell-based; conditions: OVCAR3, 7 days, read-out: Anti-proliferation assay: IC50 (nM) [Cell Line: OVCAR3]
Procedure: (§1) Cancer cell lines, namely, OVCAR3, TOV21G were seeded onto 96 well cell culture plates at a density of 2500, 1000 or 3000 cells/well, respectively and cultured overnight. Cells treated with test compounds at 3-fold dose titration for 7 days at maximum final DMSO concentration of 0.01%. The CyQUANT® Cell Proliferation Assay, a highly sensitive fluorescence-based method for quantifying cells and assessing cell proliferation and cytotoxicity was employed, following manufacturer's procedure (ThermnoFisher, Cataloge #C35012). Plates were scanned with a laser-based Acumen Cellistra instrument by TTP LabTech at Ex/Em 480/520 nm. % Inhibition is calculated based on DMSO control wells on the same plate (ie, DMSO wells have 100% growth and 0% growth inhibition).

CDK2/CycA2 = CDK2/CycA2 (Homo sapiens, UniProt P24941); assay: In vitro kinase TR-FRET assay CDK2/CycA2; type: biochemical; conditions: enzyme 3 nM, ATP 27 μM, read-out: CDK2 cyclinA2 activity assay: IC50
Procedure: (§2) In vitro kinase TR-FRET assays: CDK2/CycA2, CDK2/CycE1, CDK1/cyclinB and GSK3β
(§3) The test compounds were prepared as 10 mM stock solution in 100% DMSO. The stock solution was then serially diluted 3-fold in 100% DMSO to 10 concentrations. 200 nL of each diluted compound solution was transferred to 384-well plate in duplicate. To each well, 5 uL of enzyme and ATP mixture solution containing enzyme CDK2/CycA2, CDK2/CycE1, CDK1/cyclinB, or GSK30 (final concentrations 3 nM, 0.6 nM, 0.3 nM, 0.6 nM, respectively) and ATP (final concentrations 27 μM, 82 μM, 56 μM, 7.6 μM, respectively) in the assay buffer (50 mM HEPES, pH7.5, 10 mM MgCl2, 1 mM DTT, 0.01% BSA, 0.01% Triton X-100). For negative control, 5 uL of assay buffer was added instead. The plate was incubated at room temperature for 10 min. 5 uL of peptide solution containing ULight-4E-BP1 peptide (final concentrations 50 nM) in the assay buffer was subsequently added into each well to initiate the reaction. By incubation at room temperature for 1 hour, 10 uL of 2 nM Eu-anti-phospho-4E BP1 antibody was then added for detection. After one hour incubation at room temperature, all samples were subjected to read the TR-FRET signal on Envision with excitation at 340 nm and emission fluorescence at 615 nm and 665 nm. IC50 values were then calculated by plotting dose-response curves and then using the XLfit application in Excel software.

TOV21G = assay: Cell proliferation (CyQUANT) TOV21G; type: cell-based; conditions: 7 days, read-out: Anti-proliferation assay: IC50 (nM) [Cell Line: TOV21G]
Procedure: as §1

GSK3β = GSK3β (Homo sapiens, UniProt P49841); assay: In vitro kinase TR-FRET assay GSK3β; type: biochemical; conditions: enzyme 0.6 nM, ATP 7.6 μM
Sequence of GSK3β (P49841 whole entry, species assumed): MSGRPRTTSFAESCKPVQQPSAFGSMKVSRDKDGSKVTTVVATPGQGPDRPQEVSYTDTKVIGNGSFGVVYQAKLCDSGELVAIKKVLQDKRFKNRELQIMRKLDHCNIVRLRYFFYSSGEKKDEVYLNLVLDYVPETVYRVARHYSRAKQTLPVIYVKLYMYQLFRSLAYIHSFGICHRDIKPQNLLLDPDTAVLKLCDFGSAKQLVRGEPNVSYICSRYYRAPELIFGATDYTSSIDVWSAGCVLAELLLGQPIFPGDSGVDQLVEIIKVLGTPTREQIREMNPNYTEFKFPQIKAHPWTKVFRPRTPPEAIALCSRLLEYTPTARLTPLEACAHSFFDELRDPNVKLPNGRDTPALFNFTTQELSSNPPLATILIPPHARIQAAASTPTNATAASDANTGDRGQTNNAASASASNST
Procedure: as §2, §3

CDK1/cyclinB = CDK1/cyclinB (Homo sapiens, UniProt P06493); assay: In vitro kinase TR-FRET assay CDK1/cyclinB; type: biochemical; conditions: enzyme 0.3 nM, ATP 56 μM
Sequence of CDK1/cyclinB (P06493 whole entry): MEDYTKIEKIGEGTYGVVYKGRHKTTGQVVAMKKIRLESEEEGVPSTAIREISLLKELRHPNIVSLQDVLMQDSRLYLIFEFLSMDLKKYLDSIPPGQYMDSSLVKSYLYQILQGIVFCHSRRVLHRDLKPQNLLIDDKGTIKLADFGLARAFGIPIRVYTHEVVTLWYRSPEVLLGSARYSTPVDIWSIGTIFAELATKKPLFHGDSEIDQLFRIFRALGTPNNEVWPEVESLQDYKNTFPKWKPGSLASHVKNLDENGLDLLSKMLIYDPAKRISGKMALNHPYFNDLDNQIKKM
Sequence of CDK1/cyclinB (P14635 whole entry partner): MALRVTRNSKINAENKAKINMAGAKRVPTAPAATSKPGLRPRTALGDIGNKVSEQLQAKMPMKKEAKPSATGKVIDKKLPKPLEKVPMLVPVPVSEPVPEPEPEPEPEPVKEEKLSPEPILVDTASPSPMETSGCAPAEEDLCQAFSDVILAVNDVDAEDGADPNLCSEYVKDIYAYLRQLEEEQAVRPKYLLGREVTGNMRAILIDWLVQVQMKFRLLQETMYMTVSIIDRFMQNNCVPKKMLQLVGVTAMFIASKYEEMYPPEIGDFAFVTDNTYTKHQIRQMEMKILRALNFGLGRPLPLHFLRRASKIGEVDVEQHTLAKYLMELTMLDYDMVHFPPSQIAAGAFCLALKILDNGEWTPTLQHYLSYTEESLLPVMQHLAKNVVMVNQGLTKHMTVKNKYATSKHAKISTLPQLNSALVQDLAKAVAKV
Procedure: as §2, §3

CDK2/CycE1 = CDK2/CycE1 (Homo sapiens, UniProt P24941); assay: In vitro kinase TR-FRET assay CDK2/CycE1; type: biochemical; conditions: enzyme 0.6 nM, ATP 82 μM, read-out: CDK2 cyclinE1 activity assay: IC50
Procedure: as §2, §3

SMILES	IC50 (OVCAR3; Homo sapiens, OVCAR-3, 168 h)	IC50 (CDK2/CycA2)	IC50 (TOV21G; Homo sapiens, 168 h)	IC50 (GSK3β)	IC50 (CDK1/cyclinB)	IC50 (CDK2/CycE1)	IC50 (OVCAR3)	IC50 (TOV21G)
CC(C)NC(=O)O[C@@H]1CC[C@H](c2cc(Nc3ccc4c(c3)OCCNS4(=O)=O)n[nH]2)C1 [Example 6, (1R,3S)-3-(3-((1,1-dioxido-3,4-dihydro-2H-benzo[b][1,4,5]oxathiazepin-7-yl)amino)-1H-pyrazol-5-yl)cyclopentyl isopropylcarbamate]	≤ 500 nM	< 50 nM	≥ 1000 nM	50 to 500 nM	50 to 500 nM	< 50 nM	–	–
CC(C)NC(=O)O[C@H]1CC[C@@H](c2cc(Nc3ccc4c(c3)CNS4(=O)=O)n[nH]2)CC1 [Example 7, (1s,4s)-4-{3-[(1,1-dioxo-2,3-dihydro-1λ^6,2-benzothiazol-5-yl)amino]-1H-pyrazol-5-yl}cyclohexyl N-(propan-2-yl)carbamate]	–	< 50 nM	–	> 1000 nM	50 to 500 nM	< 50 nM	≤ 500 nM	≥ 1000 nM
CC(C)NC(=O)O[C@@H]1CC[C@H](c2cc(Nc3ccc4c(c3)CNC4=O)n[nH]2)C1 [Example 8, (1R,3S)-3-(3-((1-oxoisoindolin-5-yl)amino)-1H-pyrazol-5-yl)cyclopentyl isopropylcarbamate]	≥ 1000 nM	< 50 nM	≥ 1000 nM	500 to 1000 nM	500 to 1000 nM	< 50 nM	–	–
CC(C)NC(=O)O[C@@H]1CC[C@H](c2cc(Nc3ccc4c(c3)CCS4(=O)=O)n[nH]2)C1 [Example 9, (1R,3S)-3-(3-((1,1-dioxido-2,3-dihydrobenzo[b]thiophen-5-yl)amino)-1H-pyrazol-5-yl)cyclopentyl isopropylcarbamate]	≤ 500 nM	< 50 nM	≥ 1000 nM	50 to 500 nM	50 to 500 nM	< 50 nM	–	–
CC(C)NC(=O)O[C@@H]1CC[C@H](c2cc(Nc3ccc4c(c3)C(C)NS4(=O)=O)[nH]n2)C1 (stereo partly drawn) [Example 10, (1R,3S)-3-(5-((3-methyl-1,1-dioxido-2,3-dihydrobenzo[d]isothiazol-5-yl)amino)-1H-pyrazol-3-yl)cyclopentyl isopropylcarbamate]	≤ 500 nM	< 50 nM	≥ 1000 nM	50 to 500 nM	< 50 nM	< 50 nM	–	–
CC(C)NC(=O)O[C@H]1CC[C@@H](c2cc(Nc3ccc4c(c3)CCNS4(=O)=O)n[nH]2)CC1 [Example 11, (1s,4s)-4-{3-[(1,1-dioxo-3,4-dihydro-2H-1λ^6,2-benzothiazin-6-yl)amino]-1H-pyrazol-5-yl}cyclohexyl N-(propan-2-yl)carbamate]	≤ 500 nM	< 50 nM	≥ 1000 nM	> 1000 nM	< 50 nM	< 50 nM	–	–
CC(C)NC(=O)O[C@@H]1CC[C@H](c2cc(Nc3ccc4c(c3)N(C)CNS4(=O)=O)n[nH]2)C1 [Example 12, (1R,3S)-3-{3-[(4-methyl-1,1-dioxo-3,4-dihydro-2H-1λ^6,2,4-benzothiadiazin-6-yl)amino]-1H-pyrazol-5-yl}cyclopentyl N-(propan-2-yl)carbamate]	–	< 50 nM	–	50 to 500 nM	< 50 nM	< 50 nM	≤ 500 nM	≥ 1000 nM
COC1CS(=O)(=O)c2ccc(Nc3cc([C@H]4CC[C@@H](OC(=O)NC(C)C)C4)n[nH]3)cc21 (stereo partly drawn) [Example 15, (1R,3S)-3-{5-[(3-methoxy-1,1-dioxo-2,3-dihydro-1λ^6-benzothiophen-5-yl)amino]-2H-pyrazol-3-yl}cyclopentyl (prop-2-ylamino)methanoate]	≤ 500 nM	< 50 nM	≥ 1000 nM	50 to 500 nM	50 to 500 nM	< 50 nM	–	–
CC(C)NC(=O)O[C@@H]1CC[C@H](c2cc(Nc3ccc4c(c3)S(=O)(=O)NC4)n[nH]2)C1 [Example 17, (1R,3S)-3-(3-((1,1-dioxido-2,3-dihydrobenzo[d]isothiazol-6-yl)amino)-1H-pyrazol-5-yl)cyclopentyl isopropylcarbamate]	≤ 500 nM	< 50 nM	≤ 500 nM	50 to 500 nM	< 50 nM	< 50 nM	–	–
CC(C)NC(=O)O[C@@H]1CC[C@H](c2cc(Nc3ccc4c(c3)S(=O)(=O)CC4)n[nH]2)C1 [Example 19, (1R,3S)-3-(3-((1,1-dioxido-2,3-dihydrobenzo[b]thiophen-6-yl)amino)-1H-pyrazol-5-yl)cyclopentyl isopropylcarbamate]	≤ 500 nM	< 50 nM	≤ 500 nM	50 to 500 nM	50 to 500 nM	< 50 nM	–	–
CC(C)NC(=O)O[C@@H]1CC[C@H](c2cc(Nc3ccc4c(c3)C(C)(C)CS4(=O)=O)n[nH]2)C1 [Example 21, (1R,3S)-3-{5-[(3,3-dimethyl-1,1-dioxo-2,3-dihydro-1λ^6-benzothiophen-5-yl)amino]-2H-pyrazol-3-yl}cyclopentyl (prop-2-ylamino)methanoate]	500 to 1000 nM	< 50 nM	≥ 1000 nM	50 to 500 nM	50 to 500 nM	< 50 nM	–	–
CC(C)NC(=O)O[C@@H]1CC[C@H](c2cc(Nc3ccc4c(c3)CS(=O)(=O)C4)n[nH]2)C1 [Example 22, (1R,3S)-3-(3-((2,2-dioxido-1,3-dihydrobenzo[c]thiophen-5-yl)amino)-1H-pyrazol-5-yl)cyclopentyl isopropylcarbamate]	≤ 500 nM	< 50 nM	≤ 500 nM	500 to 1000 nM	< 50 nM	< 50 nM	–	–
CC(C)NC(=O)O[C@@H]1CC[C@H](c2cc(Nc3ccc4c(c3)CCC4=O)n[nH]2)C1 [Example 25, (1R,3S)-3-{5-[(1-oxo-2,3-dihydro-1H-inden-5-yl)amino]-2H-pyrazol-3-yl}cyclopentyl (prop-2-ylamino)methanoate]	≤ 500 nM	< 50 nM	≥ 1000 nM	50 to 500 nM	50 to 500 nM	< 50 nM	–	–
CC(C)NC(=O)O[C@@H]1CC[C@H](c2cc(Nc3ccc4c(c3)CCCS4(=O)=O)n[nH]2)C1 [Example 26, (1R,3S)-3-(3-((1,1-dioxidothiochroman-6-yl)amino)-1H-pyrazol-5-yl)cyclopentyl isopropylcarbamate]	≤ 500 nM	< 50 nM	≥ 1000 nM	50 to 500 nM	50 to 500 nM	< 50 nM	–	–
CC(C)NC(=O)O[C@H]1CC[C@@H](c2cc(Nc3ccc4c(c3)S(=O)(=O)CC4)n[nH]2)CC1 [Example 27, (1s,4s)-4-{5-[(1,1-dioxo-2,3-dihydro-1λ^6-benzo[b]thiophen-6-yl)amino]-2H-pyrazol-3-yl}cyclohexyl (prop-2-ylamino)methanoate]	≥ 1000 nM	< 50 nM	≥ 1000 nM	> 1000 nM	50 to 500 nM	< 50 nM	–	–
CC(C)NC(=O)O[C@H]1C[C@@H](c2cc(Nc3ccc4c(c3)CS(=O)(=O)C4)n[nH]2)C1 [Example 28, (1s,3s)-3-(3-((2,2-dioxido-1,3-dihydrobenzo[c]thiophen-5-yl)amino)-1H-pyrazol-5-yl)cyclobutyl isopropylcarbamate]	≤ 500 nM	< 50 nM	≤ 500 nM	50 to 500 nM	< 50 nM	< 50 nM	–	–
CC(C)NC(=O)O[C@@H]1CC[C@H](c2cc(Nc3ccc4c(c3)CCC4C#N)n[nH]2)C1 (stereo partly drawn) [Example 29, (1R,3S)-3-{5-[(1-cyano-2,3-dihydro-1H-inden-5-yl)amino]-2H-pyrazol-3-yl}cyclopentyl (prop-2-ylamino)methanoate]	500 to 1000 nM	< 50 nM	≥ 1000 nM	50 to 500 nM	50 to 500 nM	< 50 nM	–	–
